Measured values: article PMC4491869, “Antimicrobial activity of synthetic cationic peptides and lipopeptides derived from human lactoferricin against Pseudomonas aeruginosa planktonic cultures and biofilms” (BMC Microbiology, 2015)
In brackets after ≈: the same amount, converted by molar mass. Where two headings read alike, the source gives them in different places. Where a SMILES comes first, the peptide text is derived from it. The star is where a group is joined. Butanoyl(2,2-Me2) = CCC(C)(C)C(=O)*; Octanoyl(6-Me) = CCC(C)CCCCC(=O)*; Octanoyl = CCCCCCCC(=O)*

Key:
P. aeruginosa PAO1 = assay: Time-kill curves (T3log); assay type: cell-based, Pseudomonas aeruginosa; settings: MH, 37 °C with shaking, sampling 15 min to 6 h
Procedure: Time-kill studies were determined with glass tubes containing 10 ml of MH and different concentrations of the peptides (1, 2 and 4 times their MIC). Overnight cultures of P. aeruginosa PAO1 in TSB were adjusted at 5 × 10^7 CFU/ml turbidimetrically. This […] suspension was diluted in the MH tubes (1:50) for the time-kill assay. Tubes were incubated at 37 °C with shaking and samples were taken at the following time points after the beginning of incubation: 15 min, 30 min, 45 min, 1 h, 2 h, 4 h and 6 h. Each sample was serially diluted and plated. The lower limit of detection was 30 CFU/ml (1.5 × log10 CFU/ml).
To quantify the killing efficiency of the treatments, the parameter T3log (defined as the time required for the treatment to decrease 3 logs the initial inoculum) was used.

[1] = system: Pseudomonas aeruginosa PAO1 planktonic cells; assay type: cell-based
Procedure: Minimal inhibitory concentrations (MIC) of the peptides were determined in Mueller Hinton (MH) medium (Difco Laboratories, Detroit, MI, USA) by the broth microdilution assay following recommendations of the Clinical and Laboratory Standards Institute (CLSI, formerly NCCLS) with some modifications. Minimum bactericidal concentration (MBC) was defined as the concentration that caused a 3-log viability decrease in the initial inoculum and was calculated by colony counts on TSA plates incubated for 24 h at 37 °C.

[2] = system: P. aeruginosa PAO1 biofilms; assay: Microplate biofilm assay (static flow regime), crystal violet removal activity; assay type: cell-based, Pseudomonas aeruginosa; settings: 10XMIC, 24 h at 37 °C, biofilms grown in microplates (static conditions)
Procedure: In the microplate based assay, biofilms were grown with no fluid shear and the anti-biofilm activity of peptides was assessed as previously described with some modifications. Briefly, overnight cultures of P. aeruginosa PAO1 in TSB were adjusted at 5 × 10^7 CFU/ml turbidimetrically. This suspension was diluted in TSB (1:100) and 100 μl aliquots were added to the wells of a 96-well plate. After 24 h incubation at 37 °C, planktonic bacteria were removed by gently inverting the plate and then the biofilm-containing wells were washed with saline (0.85 % NaCl). The antimicrobial compound was serially diluted in Mueller Hinton (MH) at final concentrations higher than its planktonic MIC and 200 μl of each dilution was added to the wells. […]
The ability of the antimicrobials to remove the biofilm attached to the microplate well was determined by CV staining. […] The absorbance was measured at 595 nm.
(§1) Both the disinfection and removal activity of antimicrobials were expressed as “activity percentage”, a parameter that was calculated using the following formula: ActivityPercentage=C−B−T−B/C−B×100
(§2) Where C is the absorbance value of the control well with non-treated biofilm, T corresponds to the absorbance value of the well with treated biofilm and B is the blank well (i.e. with no biofilm).

[3] = system: P. aeruginosa PAO1 biofilms; assay type: cell-based, Pseudomonas aeruginosa
Procedure: In the microplate based assay, biofilms were grown with no fluid shear and the anti-biofilm activity of peptides was assessed as previously described with some modifications. Briefly, overnight cultures of P. aeruginosa PAO1 in TSB were adjusted at 5 × 10^7 CFU/ml turbidimetrically. This suspension was diluted in TSB (1:100) and 100 μl aliquots were added to the wells of a 96-well plate. After 24 h incubation at 37 °C, planktonic bacteria were removed by gently inverting the plate and then the biofilm-containing wells were washed with saline (0.85 % NaCl). The antimicrobial compound was serially diluted in Mueller Hinton (MH) at final concentrations higher than its planktonic MIC and 200 μl of each dilution was added to the wells. After 24 h incubation at 37 °C, biofilms were stained with either MTT (Sigma, St. Louis, MO, USA) or crystal violet (CV). As control, duplicate biofilms were incubated with MH containing no antimicrobial.
To quantify the disinfection (or bactericidal) activity of the antimicrobials on the biofilms, the MTT assay was used and performed as follows. After the treatment, the biofilms were rinsed with saline and 200 μl of a 0.5 mg/ml dilution of MTT in MH, was added to the wells. Incubation of biofilm with MTT was carried out during 4 h at 37 °C with no shaking. As a measure of cell viability, the conversion of MTT to a […] was determined by solubilizing the salt in 100 μl/well of DMSO and reading the absorbance of the resulting solution at 540 nm.
as §1, §2

HeLa cells = assay: Cytotoxicity assay (MTT); assay type: cell-based; settings: HeLa cells, 24 h, MTT; maximum concentration assayed 10 times their MIC
Procedure: Cytotoxicity was assayed on HeLa cells using the MTT [3-(4,5-dimethylthiazoyl-2-yl) 2,5 diphenyltetrazolium bromide protocol. Cells were grown in Dulbeccos’s modified Eagle’s medium (DMEM) and adjusted to a concentration of 10^5 cells/ml (MTT) in 96 wells polystyrene plates. Plates were incubated for 24 h at 37 °C in 5 % CO2, then supplemented with increasing amounts of peptides diluted in 2 mM Hepes pH 7.2, and incubation carried on for 24 h under the same conditions. After this time, filter-sterilized MTT was added in different plates. After 3 h, the content of the wells was gently solved and mixed with 100 μl of DMSO (MTT). Absorbance was measured at 540 nm. Compound cytotoxicity was expressed as LC50, the concentration of the compound that is lethal to 50 % of the cells.

Structure (SMILES)	T3log at 1X MIC (time needed to decrease 3 logs the initial inoculum) (P. aeruginosa PAO1) [minutes]	T3log at 2X MIC (time needed to decrease 3 logs the initial inoculum) (P. aeruginosa PAO1) [minutes]	T3log at 4X MIC (time needed to decrease 3 logs the initial inoculum) (P. aeruginosa PAO1) [minutes]	MBC (minimal bactericidal concentration) ([1]; PAO1, 24 h) [µg/mL]	MIC (minimal inhibitory concentration) ([1]; PAO1, 24 h) [µg/mL]	Removal activity (biofilm mass removed, CV test) [2]	Disinfection activity (biofilm-forming bacteria killed, MTT test) ([3]; 10XMIC, 24 h at 37 °C, biofilms grown in microplates (static conditions))	LC50 relative to the maximum concentration assayed (HeLa cells) [times their MIC]	MIC (minimal inhibitory concentration) ([1]; PAO1 planktonic cells, broth microdilution in Mueller Hinton medium, CLSI with some modifications) [µg/mL]	MBC (minimal bactericidal concentration) ([1]; PAO1 planktonic cells, concentration causing a 3-log viability decrease in the initial inoculum, colony counts on TSA, 24 h, 37 °C) [µg/mL]	Disinfection activity (biofilm-forming bacteria killed, MTT test) ([3]; PAO1, 24 h) [%]
CCC(C)CCCCC(=O)N[C@@H](Cc1ccccc1)C(=O)N[C@@H](Cc1c[nH]c2ccccc12)C(=O)N[C@@H](CCCNC(=N)N)C(=O)N[C@H](C(=O)N[C@@H](CCCNC(=N)N)C(=O)N[C@H](C(=O)N[C@@H](CCCNC(=N)N)C(=O)N[C@@H](CCCNC(=N)N)C(N)=O)[C@@H](C)CC)[C@@H](C)CC (stereo partly shown) [6-MO-LF11-215] ({Octanoyl(6-Me)}-FWRIRIRR-NH2)	34	11	10	64 (≈ 47.7 µM)	64 (≈ 47.7 µM)						
CCC(C)CCCCC(=O)N1CCC[C@H]1C(=O)N[C@@H](Cc1ccccc1)C(=O)N[C@@H](Cc1c[nH]c2ccccc12)C(=O)N[C@@H](CCCNC(=N)N)C(=O)N[C@H](C(=O)N[C@@H](CCCNC(=N)N)C(=O)N[C@H](C(=O)N[C@@H](CCCNC(=N)N)C(=O)N[C@@H](CCCNC(=N)N)C(N)=O)[C@@H](C)CC)[C@@H](C)CC (stereo partly shown) [6-MO-LF11-322] ({Octanoyl(6-Me)}-PFWRIRIRR-NH2)	41	39	19	64 (≈ 44.5 µM)	64 (≈ 44.5 µM)						
CC[C@H](C)[C@H](NC(=O)[C@H](CCCNC(=N)N)NC(=O)[C@@H](NC(=O)[C@H](CCCNC(=N)N)NC(=O)[C@H](Cc1c[nH]c2ccccc12)NC(=O)[C@H](Cc1ccccc1)NC(=O)C(C)(C)CC)[C@@H](C)CC)C(=O)N[C@@H](CCCNC(=N)N)C(=O)N[C@@H](CCCNC(=N)N)C(N)=O [DI-MB-LF11-215] ({Butanoyl(2,2-Me2)}-FWRIRIRR-NH2)	17	11	10	16 (≈ 12.3 µM)	16 (≈ 12.3 µM)	higher than 35%	medium-range disinfection activity				
CC[C@H](C)[C@H](NC(=O)[C@H](CCCNC(=N)N)NC(=O)[C@@H](NC(=O)[C@H](CCCNC(=N)N)NC(=O)[C@H](Cc1c[nH]c2ccccc12)NC(=O)[C@@H](N)Cc1ccccc1)[C@@H](C)CC)C(=O)N[C@@H](CCCNC(=N)N)C(=O)N[C@@H](CCCNC(=N)N)C(N)=O [LF11-215] (H-FWRIRIRR-NH2)								> 10	64 (≈ 53.3 µM)	128 (≈ 107 µM)	
N=C(N)NCCC[C@H](NC(=O)[C@H](CCCNC(=N)N)NC(=O)[C@H](Cc1c[nH]c2ccccc12)NC(=O)[C@H](Cc1ccccc1)NC(=O)[C@H](CCCNC(=N)N)NC(=O)[C@H](CCCNC(=N)N)NC(=O)[C@H](Cc1c[nH]c2ccccc12)NC(=O)[C@@H](N)Cc1ccccc1)C(N)=O [LF11-227] (H-FWRRFWRR-NH2)				64 (≈ 48.9 µM)	64 (≈ 48.9 µM)						~100
CC[C@H](C)[C@H](NC(=O)[C@H](CCCNC(=N)N)NC(=O)[C@@H](NC(=O)[C@H](CCCNC(=N)N)NC(=O)[C@H](Cc1c[nH]c2ccccc12)NC(=O)[C@H](Cc1ccccc1)NC(=O)[C@@H]1CCCN1)[C@@H](C)CC)C(=O)N[C@@H](CCCNC(=N)N)C(=O)N[C@@H](CCCNC(=N)N)C(N)=O [LF11-322] (H-PFWRIRIRR-NH2)				64 (≈ 49.3 µM)	32 (≈ 24.6 µM)						
CC[C@H](C)[C@H](NC(=O)[C@H](CCCNC(=N)N)NC(=O)[C@@H](NC(=O)[C@H](CCCNC(=N)N)NC(=O)[C@H](Cc1c[nH]c2ccccc12)NC(=O)[C@H](Cc1ccccc1)NC(=O)[C@H](Cc1ccccc1)NC(=O)[C@@H]1CCCN1)[C@@H](C)CC)C(=O)N[C@@H](CCCNC(=N)N)C(=O)N[C@@H](CCCNC(=N)N)C(N)=O [LF11-324] (H-PFFWRIRIRR-NH2)				8 (≈ 5.53 µM)	8 (≈ 5.53 µM)						
CCCCCCCC(=O)N[C@@H](Cc1ccccc1)C(=O)N[C@@H](Cc1c[nH]c2ccccc12)C(=O)N[C@@H](CCCNC(=N)N)C(=O)N[C@H](C(=O)N[C@@H](CCCNC(=N)N)C(=O)N[C@H](C(=O)N[C@@H](CCCNC(=N)N)C(=O)N[C@@H](CCCNC(=N)N)C(N)=O)[C@@H](C)CC)[C@@H](C)CC [O-LF11-215] (Octanoyl-FWRIRIRR-NH2)	17	21	10	32 (≈ 24.1 µM)	32 (≈ 24.1 µM)						
CCCCCCCC(=O)N[C@@H](Cc1ccccc1)C(=O)N[C@@H](Cc1c[nH]c2ccccc12)C(=O)N[C@@H](CCCNC(=N)N)C(=O)N[C@@H](CCCNC(=N)N)C(=O)N[C@@H](Cc1ccccc1)C(=O)N[C@@H](Cc1c[nH]c2ccccc12)C(=O)N[C@@H](CCCNC(=N)N)C(=O)N[C@@H](CCCNC(=N)N)C(N)=O [O-LF11-227] (Octanoyl-FWRRFWRR-NH2)	10	10	10	128 (≈ 89.2 µM)	128 (≈ 89.2 µM)						
